# Earlier results in US6284909A, “Preparations of thiophosphites and thiophosphonates” (University of Southern California, priority 2000, dated 2001).
# Where two headings read alike, the source gives them in different places.
# Legend:
# [1] = clinical trials
# [2] = clinical trials; remark: listed apart in the source
# [3] = test system: HIV reverse transcriptase
# HIV [4] = test system: HIV
# CMV = details: in culture
# H9 cells = details: at effective antiviral doses
# HIV [5] = details: U.S. Pat. Nos. 5,072,032 and 5,183,812
# [6] = test system: Herpesvirus DNA polymerases
# [7] = test system: DNA polymerase of Cytomegalovirus (CMV)
SMILES,characterization of nephrotoxicity: serum creatinine [1],characterization of nephrotoxicity: tubulopathy [1],nephrotoxicity [1],oral bioavailability [2],inhibition of HIV-1 (HIV-1),"selectivity of inhibition of isolated HIV RT ([3]; in vitro, vs human DNA polymerases)","IC50 ([3]; isolated HIV RT, in vitro, Thiovir, read-out: IC50) [nM]",antiviral activity against HIV compared to DNA polymerase inhibiting activity (HIV [4]),antiviral activity against CMV-infected cells (CMV),toxicity to cultured H9 cells (H9 cells),"effectiveness against HIV, the AIDS virus (HIV [5])","IC50 ([3]; trisodium phosphonoformate, known, read-out: IC50 (HIV reverse transcriptase)) [nM]",inhibition of several Herpesvirus DNA polymerases [6],inhibition of the DNA polymerase of Cytomegalovirus (CMV) [7],"inhibition of human DNA polymerases, compared with Thiovir (human DNA polymerases)"
"O=C(O)P(=O)(O)O [PFA, phosphonoformic acid]",increased serum creatinine,acute toxic tubolopathy,reversible nephrotoxity,poor,shown to inhibit HIV-1,,,,,,,,,,
"O=C(O)P(O)(O)=S [Thiovir®, trisodium thiophosphonoformate]",,,,,,selectively inhibited,~1000,unexpectedly high antiviral activity against HIV,exhibited antiviral activity against CMV-infected cells,non-toxic,effective against HIV,,,,
"O=C(O)P(=O)(O)O [foscarnet, Trisodium phosphonoformate]",,,,,,,,,,non-toxic,,~1000,inhibit several Herpesvirus DNA polymerases,inhibit,more inhibitory to human DNA polymerases
